What all share (format): cell-based
One series deals with A549 cells. In words: Gold cellular uptake, HRCS-AAS. The following applies: 2 μM, Fig. 5. As for the experimental part:
The amount of potential drug accumulated in the cell is often described as one of the critical factors for further biological effect. The significant difference in antiproliferative effect observed for dicarbene complexes 5a–c may be directly related to the amount of gold ions taken up by the treated cells. The cellular accumulation of these complexes was evaluated in the most sensitive cancer cell line A549. […] The gold content was further quantified using high-resolution continuum source atomic absorption spectroscopy (HRCS-AAS).
S2.4. Cellular uptake and metal quantification studies in A549 cells
Cellular uptake studies in A549 cells
For cellular accumulation studies, A549 lung carcinoma cells were seeded in 75 cm2 cell culture flasks, incubated with 10 ml DMEM/10% FCS cell culture medium at 37 °C in a 5% CO2 humidified atmosphere until they reached a confluence of 75-80%. The cells were treated with DMEM containing selected test compounds 3a and 3c dissolved in DMF (final DMF concentration: 0.1%; final test compound concentration: 2 μM). After 6 and 24 h of exposure, cells were isolated by removing the media followed by trypsinization. The trypsinized cells were washed with 9 ml PBS buffer (pH 7.4), scraped, and isolated by centrifugation (5 min, 3500 rpm). The obtained cell pellets were stored at -20 °C for further use. All experiments were carried out in triplicate.
Metal quantification in cell lysates by HRCS-AAS
Dry cell pellets were diluted with 400 μl of Milli-Q® water and lysed for 30 min in an ultrasonic bath (240 W, […]). For protein quantification. 20 μl of each sample was added to 200 μl of Bradford reagent (25 mg Serva Blue G (Sigma Aldrich) in 25 ml Ethanol 96%, 25 ml Milli-Q® water and 50 ml H3PO4 86%, stored at -20 °C and freshly diluted 1+4 with Milli-Q® water prior to use) and incubated on a 96-well plate while shaking at room temperature for 30 min and measured by a Perkin Elmer Victor X4 plate reader at a wavelength of 595 nm. The measurements were performed in duplicate, and the mean was used to calculate the protein content. For a standard calibration curve, bovine serum albumin (Sigma Aldrich) was used in graded concentrations.
The gold quantification was performed using a high-resolution continuum source atomic absorption spectrometer ContrAA® 700 (Analytik Jena AG). A pure sample of the respective complex 5c was used as standard, and calibration was done in a matrix-matched manner (meaning all samples and standards were adjusted to a protein concentration of 1 mg/ml by dilution with Milli-Q® water). The calibration and samples were measured in duplicate. The final cellular gold concentrations were calculated from data obtained in three independent experiments and are expressed as pmol of metal per mg of cell protein. Sample preparation: Triton-X 100 (1%, 20 μl) and ascorbic acid (1%, 20 μl) were added to each calibration standard or probe (200 μl). A volume of 20 μl was injected into a coated standard graphite tube (Analytik Jena AG) and thermally processed as previously described.[10] The gold amount was analyzed at a wavelength of 242.79 nm.

Series [1] concerns Vero E6 African green monkey kidney cells. The series can be described thus: Antiproliferative activity in non-tumour reference cell line. As to conditions: for IC50: Vero E6 non-tumour reference cell line, SD in parentheses, n = 3; for Tumour selectivity: tumour cell lines in comparison to Vero E6: comparison of IC50 in tumour cell lines and non-tumour Vero E6. As for the experimental part: The antiproliferative potential of the gold–NHC complexes was determined in A549 lung carcinoma cells, MDA-MB-231 breast cancer cells, MCF-7 breast adenocarcinoma cells, and HT-29 colon carcinoma cells (Table 1). Vero E6 African green monkey kidney cells served as a reference cell line to check for possible tumour selectivity. Auranofin (AF) was used as an established reference drug.[15,17] […]
S2.2. Cytotoxicity and Anticancer Studies
Cell culture and cytotoxicity
Cell lines were sourced from DSMZ (German Collection of Microorganisms and Cell Cultures GmbH) and maintained through standard procedures in Dulbecco's Modified Eagle Medium (DMEM) supplemented with 10% fetal calf serum and 50 mg/L gentamycin. Antiproliferative effects were assessed using a well-established assay protocol. In brief, 100 μL volumes of A549 cells (13,243 cells per mL), HT-29 cells (14,657 cells per mL), MDA-MB-231 cells (6,613 cells per mL), or MCF-7 cells (6,917 cells per mL) were transferred into the wells of 96-well plates and incubated at 37°C/5% CO2 for 72 […]
Freshly prepared stock solutions of the compounds in DMSO were diluted with the respective cell culture medium to achieve graded concentrations (final concentration of DMSO: 0.1% v/v). After 72 hours (A549, HT-29) or 96 hours (MCF-7, MDA-MB-231) of exposure, the cell biomass was assessed through crystal violet staining, and the IC50 value was determined as the concentration causing 50% inhibition of cell proliferation compared to an untreated control. Results were calculated as the mean values of three independent experiments.

Series [2] deals with Escherichia coli DSM 1116. The series can be described thus: Antibacterial activity (MIC, curve fitting). As to conditions: Table S12; ± standard error of the mean. As for the experimental part:
(§1) The antibacterial activity of all gold complexes was assessed against six pathogenic bacterial strains, including two Gram-positive species, i.e. Enterococcus faecium and methicillin-resistant Staphylococcus aureus (MRSA), and four Gram-negative species, i.e. Acinetobacter baumannii, Escherichia coli, Klebsiella pneumoniae, and Pseudomonas aeruginosa. Minimum inhibitory concentrations (MICs) were determined using a curve-fitting technique.
(§2) S2.1. Antibacterial Studies
(§3) Bacterial cultures were prepared by overnight aerobic incubation at 37 °C. Gram-negative strains were cultivated in Müller Hinton broth supplemented with 1% glucose at pH 7.2, while Gram-positive strains were grown in Trypticase soy yeast extract medium (TSY) with a composition of 30 g/l trypticase soy broth, 3 g/l yeast extract, and pH 7.2. The cultures were adjusted to an OD600 of 0.001, resulting in a final starting OD600 of 0.0005 for the subsequent tests. For testing, 25 μL of the prepared culture was combined with 25 μL of serially diluted test compounds in 384 well plates, following established protocols for different strains. Screening was performed at compound concentrations of 0.5, 5, and 50 µM, and for selected compounds, growth inhibition curves were recorded using DMSO stock solutions […]
(§4) Positive control compounds, namely linezolid (for MRSA strains), ciprofloxacin (for E. faecium and E. coli), and amikacin (for P. aeruginosa), were included. The maximum DMSO concentration in the assay […]
(§5) After an 18-hour incubation at 37 °C under moist conditions, the optical density at 600 nm was measured using a Fusion Universal Microplate Analyser (Perkin–Elmer, Waltham, USA). The minimum inhibitory concentration (MIC) values, representing the […]
(§6) fitting with Sigma Plot. The bacterial strains used included Gram-negative strains: Escherichia coli (DSM 1116), A. baumannii (DSM30007), K. pneumoniae (DSM111678), and Pseudomonas aeruginosa PA7 (DSM 24068); and Gram-positive strains: E. faecium (DSM20477) and Staphylococcus aureus MRSA

Series [3] relates to Acinetobacter baumannii DSM30007. The series can be described thus: Antibacterial activity (MIC, curve fitting). The following applies: Table S12; ± standard error of the mean. The procedure: as §1, §2, §3, §4, §5, §6
In series [4] the test system is Enterococcus faecium DSM20477. The series can be described thus: Antibacterial activity (MIC, curve fitting). The following applies: Table S12; ± standard error of the mean. The procedure:
as §1, §2, §3, §4, §5, §6

Series [5] deals with Pseudomonas aeruginosa DSM 24068. In words: Antibacterial activity (MIC, curve fitting). As to conditions: Table S12; ± standard error of the mean. As for the experimental part:
as §1, §2, §3, §4, §5, §6

The values below come from paper PMC11342128, “Gold(I) and gold(III) carbene complexes from the marine betaine norzooanemonin: inhibition of thioredoxin reductase, antiproliferative and antimicrobial activity” (RSC Medicinal Chemistry, 2024).

Usually IC50 stands for the point on the concentration scale where inhibition reaches its midpoint. On to `Cn1cc(C(=O)O)[n+](C)[c]1[Au-]([Cl])([Cl])[c]1n(C)cc(C(=O)O)[n+]1C.[Cl-]` [5a], for which, in the series on A549 cells (6 h, 37 °C), the “Gold uptake (cellular gold content)” value is reported as “low gold uptake”. Besides, the 50% inhibitory concentration (IC50) in series [1] was greater than 100 µM. Also, the “MIC, E. coli” value in series [2] is greater than 100 µM. The “MIC, A. baumannii” value in series [3] is greater than 100 µM. The “MIC, E. faecium” value in series [4] is greater than 100 µM. The “MIC, P. aeruginosa” value in series [5] was greater than 100 µM.

On to `CCOC(=O)c1cn(C)[c]([Au-]([Cl])([Cl])[c]2n(C)cc(C(=O)OCC)[n+]2C)[n+]1C.F[B-](F)(F)F` [5c], for which the “Gold uptake (cellular gold content)” value in the series with A549 cells (6 h, 37 °C) is “higher degree of gold uptake”. For the same compound, the “Gold uptake (cellular gold content)” value with A549 cells (24 h compared with 6 h) is on record as “decreased significantly”. In series [1], the IC50 came to 30.8 µM and the “Tumour selectivity: tumour cell lines in comparison to Vero E6” value is “clear preference for the tumour cell lines”. Besides, the “MIC, E. coli” value in series [2] is greater than 100 µM. In series [3], the “MIC, A. baumannii” value is greater than 100 µM. Also, the “MIC, E. faecium” value in series [4] was greater than 100 µM. For the same compound, the “MIC, P. aeruginosa” value in series [5] was greater than 100 µM.

Turning to `COC(=O)c1cn(C)[c]([Au-]([Cl])([Cl])[c]2n(C)cc(C(=O)OC)[n+]2C)[n+]1C.O=S(=O)([O-])C(F)(F)F` [5b], the “Gold uptake (cellular gold content)” value was “higher degree of gold uptake” with A549 cells (6 h, 37 °C) and “decreased significantly” in the series on A549 cells (24 h compared with 6 h). For the same compound, in series [1], the half-maximal inhibitory concentration (IC50) is greater than 100 µM. Further, the “Tumour selectivity: tumour cell lines in comparison to Vero E6” value in series [1] was “clear preference for the tumour cell lines”. The “MIC, E. coli” value in series [2] was greater than 100 µM. In series [3], the “MIC, A. baumannii” value is greater than 100 µM. Further, in series [4], the “MIC, E. faecium” value was greater than 100 µM. Further, in series [5], the “MIC, P. aeruginosa” value is greater than 100 µM.
